US6444420B2, “Use of GPR30 receptor ligands to mediate neurotrophic action” (The Board of Trustees of the Leland Stanford Junior …, priority 1999, dated 2002)
Entries after “also recorded” stand apart in the source; their conditions may differ.

Assays:
[1] = test system: mitogen-activated protein (MAP) kinases; conditions: literature, Singh et al. (1999); cited from earlier work
Rap1 = Rap1 activation pull-down assay in PC12 cells; assay type: cell-based; conditions: for Effect on Rap1 activation induced by 17β-estradiol: 100 nM 17β-estradiol plus 1 μM tamoxifen
Procedure: FIGS. 2A, 2B, 2C, 2D: 17β-estradiol elicits Rap1, but not Ras, activation in PC12 cells. Serum-starved PC12 cells were treated with 100 nM 17β-estradiol for the indicated time intervals. Activated Ras (A) and Rap1 (B) were precipitated from cell lysates and analyzed as described in the Materials and Methods. […] Tomaxifen itself has no effect on Rap1 activation in PC12 cells D.
Drug Screening Assays: These are used to identify GPR30 ligands that bind to and activate the GPR30 receptor. Drug screening identifies agents that enhance GPR30 activity. Of particular interest are screening assays for agents that have a low toxicity for human cells. In vitro or in vivo binding assays can be used to assess the extent to which a compound behaves as a specific ligand. Other assays are available to test for the activation of signaling pathways by ligand binding. One assay based on the finding that GPR30 activation results in the activation of the small GTPase Rap1, and of the other enzymes in the MAP kinase signaling pathway that is activated by Rap1. The assay for evaluating the activation of Rap1 examines the extent to which Rap1 is bound to GTP and employs a method as described by Herrmann et al. (1995) J. Biol. Chem 270:2901-2905. A wide variety of assays are available to assess the activation status of the enzymes downstream from Rap1. These include in vitro kinase assays for B-Raf, MEK, MAP kinase and Rsk (Cowley et al. (1994) Cell 77:841-852; Vossler et al. (1997) Cell 89:73-82). The activation of these proteins and some of their downstream targets (e.g. Elk-1 and CREB) may also be assessed through the use of antibodies to phosphorylated tyrosine or serine or threonine residues, which marks their active state (Payne et al. (1991) EMBO J. 10(4):885-892).
(§1) The reagents used in these studies were those specified in the original references to methods employed, unless otherwise specified. We used established cell culture methods for growing cells and for examining their morphological responses (Zhou et al. (1994) Proc. Natl. Acad. Sci USA 91(9):3824-3828). To examine gene expression for GPR30 and the classical ERs, standard methods were used to isolate mRNA and to analyze it by Northern blot and by RT-PCR (GIBCO-BRL, Bethesda, Md.). The activity of Rap1 and of Ras were assayed using pull-down assays with fusion proteins that bind specifically to the GTP-bound forms of these proteins, as described (Herrmann et al. (1995) J. Biol. Chem. 270:2901-2905). These fusion proteins were produced essentially as described by these authors. The activity of MAP kinase was determined by immunoblotting cell lysates with antibodies to phosphorylated MAP kinase (Payne et al. (1991) EMBO J. 10(4):885-892). The source of these antibodies was from New England Biolabs, Inc. (Beverley, Mass.).

Erk kinases (MAP kinase) = assay: Erk (MAP kinase) activation by immunoblot of PC12 cell lysates; assay type: cell-based; conditions: serum-starved PC12 cells, 100 nM 17β-estradiol, indicated time intervals
Procedure: as §1, with “As in FIG. 2, serum-starved PC12 cells were treated with 100 nM 17β-estraldiol for the indicated time intervals. Cells were-rinsed and lysed in RIPA buffer. Proteins were separated on SDS-PAGE, blotted onto PVDF membrane. The blot was probed for activated Erks (i.e activated MAP kinase) using rabbit IgGs against activated Erk kinases (UBI). The reagents” for “The reagents”

PC12 cells = assay: PC12 cell differentiation and survival in serum-free media; assay type: cell-based; conditions: serum-free media with 100 nM 17β-estradiol, 6 days
Procedure: as §1, with “PC12 cells were maintained in either serum-free media (A) or serum-free media supplemented with 100 nM 17β-estradiol (B) for 6 days. Cells were monitored with phase-contrast microscope and typical images were captured using a CCD camera. Differentiated PC12 cells (arrows) can be observed with 17β-estradiol treatment (B), whereas massive cell death occurred in the control (A). The reagents” for “The reagents”, “J. 10(4):885-892). […]” for “J. 10(4):885-892). The source of these antibodies was from New England Biolabs, Inc. (Beverley, Mass.).”

[2] = test system: 145 kDa intermediate neurofilament; assay: 145 kDa intermediate neurofilament expression in PC12 cells (immunoblot); assay type: cell-based; conditions: serum-free media, 3 days
Excerpt: FIG. 5: Induction of the 145 kDa intermediate neurofilament expression by 17β-estradioi in PC12 cells. PC12 cells were maintained in either serum-free media supplemented with either NGF or 17β-estradiol at the indicated concentrations for 3 days. Treated as well as control cells were lysed in RIPA buffer and the lysates were separated on SDS-PAGE, transferred onto PVDF membrane. The blot was probed with specific antibodies against the 145 kDa intermediate neurofilament.

Ras = Ras activation pull-down assay in PC12 cells; assay type: cell-based; conditions: serum-starved PC12 cells, 100 nM 17β-estradiol, indicated time intervals
Procedure: Serum-starved PC12 cells were treated with 100 nM 17β-estradiol for the indicated time intervals. Activated Ras (A) and Rap1 (B) were precipitated from cell lysates and analyzed as described in the Materials and Methods. […] The activity of Rap1 and of Ras were assayed using pull-down assays with fusion proteins that bind specifically to the GTP-bound forms of these proteins, as described (Herrmann et al. (1995) J. Biol. Chem. 270:2901-2905). These fusion proteins were produced essentially as described by these authors.

17β-estradiol
Tyrosine phosphorylation/activation of MAP kinases [1]: elicited rapid tyrosine phosphorylation/activation

C[C@]12CC[C@@H]3c4ccc(O)cc4CC[C@H]3[C@@H]1CC[C@@H]2O [17β-estradiol]
Activation of Rap1 during the first 10 minutes of treatment (Rap1; PC12 cells, first 10 minutes): little effect | Activation of Rap1 at later times (Rap1; PC12 cells, later than 10 minutes): marked effect | Rap1 activation (Rap1; serum-starved PC12 cells, 100 nM 17β-estradiol, indicated time intervals): induces Rap1 activation; also recorded: activated Rap1 | Erk / MAP kinase activation (pERK) (Erk kinases (MAP kinase)): induces prolonged Erk activation; also recorded: induced sustained activation | PC12 cell differentiation (neurite outgrowth) (PC12 cells): induces PC12 cell differentiation; also recorded: induced the outgrowth of long neurites | PC12 cell survival under serum free culture (PC12 cells): prevented these cells from dying | Expression of the 145 kDa intermediate neurofilament protein [2]: Induction; also recorded: increasing the level of expression | Ras activation (Ras): no detectable Ras activation and not

C[C@]12CC[C@@H]3c4ccc(O)cc4C[C@@H](CCCCCCCCC[S+]([O-])CCCC(F)(F)C(F)(F)F)[C@H]3[C@@H]1CC[C@@H]2O (some centres unmarked) [ICI 182,780]
Inhibition of estradiol-elicited extracellular signal-regulated protein kinase activation [1]: not

COc1cccc(-c2cc(=O)c3ccccc3o2)c1N [PD98059]
Inhibition of estradiol-elicited extracellular signal-regulated protein kinase activation [1]: inhibited successfully

CC/C(=C(\c1ccccc1)c1ccc(OCCN(C)C)cc1)c1ccccc1 [tamoxifen]
Effect on Rap1 activation induced by 17β-estradiol (Rap1; PC12 cells): blocked the response | Effect on Rap1 activation induced by 17β-estradiol (Rap1; PC12 cells, listed as tomaxifen): can be blocked | Rap1 activation by the substance alone (Rap1; PC12 cells, tamoxifen alone): no effect
